According to EP4596574A1, “GLP-1/GCG/GIP TRIPLE-RECEPTOR AGONIST AND USE THEREOF” (Sunshine Lake Pharma Co., Ltd., priority 2022, dated 2024):
pEC50: −log10 of the molar value. Where two headings read alike, the source gives them in different places. Marks after values point to notes of the source that are not given here.

Assays:
GCGR = biological target: T1, GCGR (Homo sapiens, UniProt P47871); experiment: In vitro cell activity, cAMP production in HEK293 cells expressing GCGR; format: cell-based
T1 construct: expressed in transfected cells; host or cells: HEK293 (HEK293-GCGR)
T1 sequence (P47871 26-477, species assumed): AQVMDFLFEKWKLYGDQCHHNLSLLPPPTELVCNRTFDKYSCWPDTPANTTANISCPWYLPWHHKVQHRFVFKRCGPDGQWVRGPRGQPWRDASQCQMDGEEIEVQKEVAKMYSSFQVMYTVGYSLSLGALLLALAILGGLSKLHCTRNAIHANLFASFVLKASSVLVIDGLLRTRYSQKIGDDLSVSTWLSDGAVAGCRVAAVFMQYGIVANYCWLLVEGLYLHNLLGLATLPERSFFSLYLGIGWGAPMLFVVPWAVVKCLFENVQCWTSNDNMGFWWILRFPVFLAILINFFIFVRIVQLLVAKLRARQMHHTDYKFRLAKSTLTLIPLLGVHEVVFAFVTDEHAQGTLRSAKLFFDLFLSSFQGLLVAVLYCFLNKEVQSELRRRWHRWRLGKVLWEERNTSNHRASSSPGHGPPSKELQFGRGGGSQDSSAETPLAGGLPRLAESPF
How it was run: (§1)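 Assay format: cells at 4×10^5 cells/mL, cAMP sensed by d2/cryptate FRET pair, dual-wavelength read at 665 and 620 nm. Potency expressed as EC50 from nonlinear fitting.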

GLP-1R = biological target: T2, GLP-1R (Homo sapiens, UniProt P43220); experiment: In vitro cell activity, cAMP production in HEK293 cells expressing GLP-1R; format: cell-based
T2 construct: expressed in transfected cells; host or cells: HEK293 (HEK293-GLP-1R)
T2 sequence (P43220 24-463, species assumed): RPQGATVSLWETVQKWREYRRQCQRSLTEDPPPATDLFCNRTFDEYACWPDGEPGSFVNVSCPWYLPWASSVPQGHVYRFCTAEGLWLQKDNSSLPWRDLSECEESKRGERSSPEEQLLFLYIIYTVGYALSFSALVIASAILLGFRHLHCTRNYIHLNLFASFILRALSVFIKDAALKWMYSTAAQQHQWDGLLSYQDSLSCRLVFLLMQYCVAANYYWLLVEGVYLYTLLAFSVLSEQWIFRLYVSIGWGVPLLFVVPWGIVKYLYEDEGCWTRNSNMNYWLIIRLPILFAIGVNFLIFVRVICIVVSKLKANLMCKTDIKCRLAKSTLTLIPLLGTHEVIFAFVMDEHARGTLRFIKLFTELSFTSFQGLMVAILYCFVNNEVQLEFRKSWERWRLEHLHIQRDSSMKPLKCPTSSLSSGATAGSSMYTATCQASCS
How it was run: as §1

GIPR = biological target: T3, GIPR (Homo sapiens, UniProt P48546); experiment: In vitro cell activity, cAMP production in HEK293 cells expressing GIPR; format: cell-based
T3 construct: expressed in transfected cells; host or cells: HEK293 (HEK293-GIPR)
T3 sequence (P48546 22-466): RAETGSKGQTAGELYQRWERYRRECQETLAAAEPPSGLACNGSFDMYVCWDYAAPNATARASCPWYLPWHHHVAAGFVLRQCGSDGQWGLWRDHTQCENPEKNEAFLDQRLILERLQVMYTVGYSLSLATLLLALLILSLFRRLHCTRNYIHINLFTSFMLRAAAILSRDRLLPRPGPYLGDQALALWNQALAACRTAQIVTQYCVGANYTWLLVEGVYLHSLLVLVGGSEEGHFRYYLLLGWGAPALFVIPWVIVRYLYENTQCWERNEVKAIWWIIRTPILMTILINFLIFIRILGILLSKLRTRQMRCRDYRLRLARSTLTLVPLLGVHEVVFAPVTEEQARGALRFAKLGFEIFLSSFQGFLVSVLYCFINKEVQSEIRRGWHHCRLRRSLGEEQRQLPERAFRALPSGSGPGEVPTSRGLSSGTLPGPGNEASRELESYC
How it was run: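 cAMP accumulation is quantified by homogeneous TR-FRET (cAMP-d2 plus anti-cAMP cryptate) in GIPR-expressing HEK293 cells seeded from a 4×10^5 cells/mL suspension and treated with compound. The signal ratio is plotted against concentration and fitted to a four-parameter curve to give EC50.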

[1] = Glucose tolerance assessment in normal C57BL/6 mice (Example 4); format: in vivo
Description: Twelve hours after the single administration, the animals were fasted for 12 hours and had free access to water. Blood was collected from the tail vein to determine the basal blood glucose level of each group of animals, and then 2 g/kg glucose solution was injected intraperitoneally. Blood glucose was tested at 15, 30, 60, and 90 min after glucose administration. The blood glucose concentration-time curve was drawn according to the blood glucose values measured at different time points, and the AUC0~90min of each dose group was calculated as shown in Table 4 and Figure 1. Table 4: Effects of single administration of HEC-PT74, HEC-PT75, HEC-PT77, HEC-PT78, HEC-PT80, and HEC-PT82 on glucose tolerance in normal C57 mice 24 h after administration

[2] = In vivo efficacy evaluation in db/db mouse model (blood glucose); design: species or system db/db mice
Description: Blood glucose was tested before each administration.

`CC[C@H](C)[C@H](NC(=O)[C@H](Cc1ccccc1)NC(=O)[C@H](CCC(=O)O)NC(=O)[C@H](CCC(N)=O)NC(=O)[C@H](CCC(N)=O)NC(=O)[C@H](C)NC(=O)[C@H](CCCCNC(=O)COCCOCCNC(=O)CC[C@H](NC(=O)CCCCCCCCCCCCCCCCC(=O)O)C(=O)O)NC(=O)[C@H](CCC(=O)O)NC(=O)[C@H](CC(=O)O)NC(=O)[C@H](CC(C)C)NC(=O)[C@H](CC(C)C)NC(=O)[C@@H](NC(=O)[C@H](CO)NC(=O)[C@H](Cc1ccc(O)cc1)NC(=O)[C@H](CC(=O)O)NC(=O)[C@H](CO)NC(=O)[C@@H](NC(=O)[C@](C)(Cc1ccccc1F)NC(=O)[C@@H](NC(=O)CNC(=O)[C@H](Cc1c[nH]cn1)NC(=O)C(C)(C)NC(=O)[C@@H](N)Cc1ccc(O)cc1)[C@@H](C)O)[C@@H](C)O)[C@@H](C)CC)C(=O)N[C@@H](CCC(=O)O)C(=O)N[C@@H](Cc1c[nH]c2ccccc12)C(=O)N[C@@H](CC(C)C)C(=O)N[C@@H](CC(C)C)C(=O)N[C@@H](C)C(=O)NCC(=O)NCC(=O)N1CCC[C@H]1C(=O)N[C@@H](CO)C(=O)N[C@@H](CO)C(=O)NCC(=O)N[C@@H](C)C(=O)N1CCC[C@H]1C(=O)N1CCC[C@H]1C(=O)N1CCC[C@H]1C(=O)N[C@@H](CO)C(=O)O` [HEC-PT80] showed a pEC50 (GCGR) of 8.90, a pEC50 (GLP-1R) of 9.47 and a pEC50 (GIPR) of 10.30. For the same compound, the “Blood glucose level (mM) 15 min” value ([1]; 3 nmol/kg s.c. single dose, 24 h after administration, 15 min after 2 g/kg glucose i.p.) was 11.1 ± 2.0 mM, the “Blood glucose level (mM) 30 min” value ([1]; 3 nmol/kg s.c. single dose, 24 h after administration, 30 min after 2 g/kg glucose i.p.) was 9.3 ± 1.7 mM and the “Blood glucose level (mM) 60 min” value ([1]; 3 nmol/kg s.c. single dose, 24 h after administration, 60 min after 2 g/kg glucose i.p.) was 7.2 ± 1.0 mM. The “Blood glucose level (mM) 90 min” value ([1]; 3 nmol/kg s.c. single dose, 24 h after administration, 90 min after 2 g/kg glucose i.p.) was 5.5 ± 0.5 mM, the “Blood glucose level (mM) 0 min” value ([1]; 3 nmol/kg s.c. single dose, 24 h after administration, basal before 2 g/kg glucose i.p.) was 4.6 ± 1.1 mM and the “improvement of glucose tolerance compared with LY3298176” value ([1]; 24 hours after a single administration, 3 nmol/kg) was “more effective in improving glucose tolerance than the positive control LY3298176”. The AUC0-90 min ([1]; blood glucose AUC, 3 nmol/kg s.c. single dose, 24 h after administration, 2 g/kg glucose i.p.) was 707.6±98.4^a.

With `CC[C@H](C)[C@H](NC(=O)[C@H](Cc1ccccc1)NC(=O)[C@H](C)NC(=O)[C@H](CCCNC(=N)N)NC(=O)[C@H](CCC(N)=O)NC(=O)[C@H](C)NC(=O)[C@H](CCCCNC(=O)COCCOCCNC(=O)CC[C@H](NC(=O)CCCCCCCCCCCCCCCCCCC(=O)O)C(=O)O)NC(=O)[C@H](CCC(=O)O)NC(=O)[C@H](CC(=O)O)NC(=O)[C@H](CC(C)C)NC(=O)[C@H](CC(C)C)NC(=O)[C@@H](NC(=O)[C@H](CO)NC(=O)[C@H](Cc1ccc(O)cc1)NC(=O)[C@H](CC(=O)O)NC(=O)[C@H](CO)NC(=O)[C@@H](NC(=O)[C@](C)(Cc1ccccc1F)NC(=O)[C@@H](NC(=O)CNC(=O)[C@H](CCC(N)=O)NC(=O)C(C)(C)NC(=O)[C@@H](N)Cc1ccc(O)cc1)[C@@H](C)O)[C@@H](C)O)[C@@H](C)CC)C(=O)N[C@@H](CCC(=O)O)C(=O)N[C@@H](Cc1ccc(O)cc1)C(=O)N[C@@H](CC(C)C)C(=O)N[C@@H](CC(C)C)C(=O)N[C@@H](CCC(=O)O)C(=O)NCC(=O)NCC(=O)N1CCC[C@H]1C(=O)N[C@@H](CO)C(=O)N[C@@H](CO)C(=O)NCC(=O)N[C@@H](C)C(=O)N1CCC[C@H]1C(=O)N1CCC[C@H]1C(=O)N1CCC[C@H]1C(=O)N[C@@H](CO)C(=O)O` [HEC-PT85] the “blood glucose after administration” value ([2]; db/db mice, 10 nmol/kg) was “significantly reduce blood glucose”, the “Random blood glucose (mM) D0” value ([2]; db/db mice, 10 nmol/kg s.c. once every three days, D0 (before first dose)) was 26.2 ± 2.8 mM and the “Random blood glucose (mM) D3” value ([2]; db/db mice, 10 nmol/kg s.c. once every three days, D3) was 11.8 ± 3.6 mM. The “Random blood glucose (mM) D4” value ([2]; db/db mice, 10 nmol/kg s.c. once every three days, D4) was 17.6 ± 3.1 mM, the “Random blood glucose (mM) D5” value ([2]; db/db mice, 10 nmol/kg s.c. once every three days, D5) was 20.2 ± 5.5 mM and the “Random blood glucose (mM) D6” value ([2]; db/db mice, 10 nmol/kg s.c. once every three days, D6) was 17.3 ± 3.4 mM. For the same compound, the “Random blood glucose (mM) D7” value ([2]; db/db mice, 10 nmol/kg s.c. once every three days, D7) was 21.3 ± 3.5 mM, the “Random blood glucose (mM) D10” value ([2]; db/db mice, 10 nmol/kg s.c. once every three days, D10) was 11.8 ± 3.8 mM and the “Random blood glucose (mM) D13” value ([2]; db/db mice, 10 nmol/kg s.c. once every three days, D13) was 14.7 ± 4.9 mM. The “Random blood glucose (mM) D16” value ([2]; db/db mice, 10 nmol/kg s.c. once every three days, D16) was 12.8 ± 3.9 mM, the “Random blood glucose (mM) D19” value ([2]; db/db mice, 10 nmol/kg s.c. once every three days, D19) was 13.7 ± 2.5 mM and the “Random blood glucose (mM) D22” value ([2]; db/db mice, 10 nmol/kg s.c. once every three days, D22) was 17.2 ± 4.2 mM. The “Random blood glucose (mM) D25” value ([2]; db/db mice, 10 nmol/kg s.c. once every three days, D25) was 15.7±4.5^a mM, the “Random blood glucose (mM) 6 h” value ([2]; db/db mice, 10 nmol/kg s.c., 6 h) was 15.3 ± 5.4 mM and the “Random blood glucose (mM) 24 h” value ([2]; db/db mice, 10 nmol/kg s.c., 24 h) was 10.1 ± 3.7 mM. The “Random blood glucose (mM) 48 h” value ([2]; db/db mice, 10 nmol/kg s.c., 48 h) was 12.9 ± 4.2 mM, the “time at which blood glucose levels reached the lowest level” value ([2]; db/db mice, 10 nmol/kg, after administration) was “about 24 hours” and the “blood glucose lowering after long-term administration compared with LY3298176” value ([2]; db/db mice, long-term repeated administration) was “not inferior to the positive control LY3298176”. The “blood glucose reducing effect after administration compared with LY3298176” value ([2]; db/db mice, same dose 10 nmol/kg) was “slightly better than the positive control LY3298176”, the “blood glucose level after long-term administration” value ([2]; type II diabetes model db/db mice) was “significantly improve the blood glucose level” and the pEC50 (GCGR) was 9.22. The pEC50 (GLP-1R) was 9.59 and the pEC50 (GIPR) was 9.63.

For `CC[C@H](C)[C@H](NC(=O)[C@H](Cc1ccccc1)NC(=O)[C@H](CCC(=O)O)NC(=O)[C@H](CCC(N)=O)NC(=O)[C@H](CCC(N)=O)NC(=O)[C@H](C)NC(=O)[C@H](CCCCNC(=O)COCCOCCNC(=O)CC[C@H](NC(=O)CCCCCCCCCCCCCCCCCCC(=O)O)C(=O)O)NC(=O)[C@H](CCC(=O)O)NC(=O)[C@H](CC(=O)O)NC(=O)[C@H](CC(C)C)NC(=O)[C@H](CC(C)C)NC(=O)[C@@H](NC(=O)[C@H](CO)NC(=O)[C@H](Cc1ccc(O)cc1)NC(=O)[C@H](CC(=O)O)NC(=O)[C@H](CO)NC(=O)[C@@H](NC(=O)[C@](C)(Cc1ccccc1F)NC(=O)[C@@H](NC(=O)CNC(=O)[C@H](CCC(N)=O)NC(=O)C(C)(C)NC(=O)[C@@H](N)Cc1ccc(O)cc1)[C@@H](C)O)[C@@H](C)O)[C@@H](C)CC)C(=O)N[C@@H](CCC(=O)O)C(=O)N[C@@H](Cc1c[nH]c2ccccc12)C(=O)N[C@@H](CC(C)C)C(=O)N[C@@H](CC(C)C)C(=O)N[C@@H](C)C(=O)NCC(=O)NCC(=O)N1CCC[C@H]1C(=O)N[C@@H](CO)C(=O)N[C@@H](CO)C(=O)NCC(=O)N[C@@H](C)C(=O)N1CCC[C@H]1C(=O)N1CCC[C@H]1C(=O)N1CCC[C@H]1C(=O)N[C@@H](CO)C(=O)O` [HEC-PT90], the pEC50 (GCGR; HEK293-GCGR cells, cAMP, read-out: GCGR (EC50)) was 8.15, the pEC50 (GLP-1R; HEK293-GLP-1R cells, cAMP, read-out: GLP-1R (EC50)) was 9.50 and the pEC50 (GIPR; HEK293-GIPR cells, cAMP, read-out: GIPR (EC50)) was 9.73.
